The numbers were not newly measured in patent US20090247553A1, “Highly Pure Paliperidone or a Pharmaceutically Acceptable Salt Thereof Substantially Free of Keto Impurity” (ACTAVIS GROUP PTC EHF, priority 2008, published 2009), which cites them from elsewhere.

Each structure is given as a SMILES string.

For series [1] the following is noted: powder.

Regarding `Cc1nc2n(c(=O)c1CCN1CCC(c3noc4cc(F)ccc34)CC1)CCCC2O` (racemic) [Paliperidone, (±)-3-[2-[4-(6-fluoro-1,2-benzisoxazol-3-yl)-1-piperidinyl]ethyl]-6,7,8,9-tetrahydro-9-hydroxy-2-methyl-4H-pyrido[1,2-a]pyrimidin-4-one], in series [1], the hygroscopicity entry is recorded as “non-hygroscopic”. In addition, for the setting “0.1N HCl”, the “solubility in 0.1N HCl” value was 2.3 g/100 ml. For the same molecule, for the setting “ethanol”, the solubility in ethanol is 0.076 g/100 ml. Also, the solubility in water (water) is recorded as 0.003 g/100 ml.
